Consider 2 molecules from ChEMBL document CHEMBL1145221, “2,3-Diphenylpropionic acids as potent VLA-4 antagonists” (Bioorg Med Chem Lett, 2005).

In brackets after ≈: the same amount, converted by molar mass.

The nature of the data set: physchem. Conditions: water.

In the case of `Cc1cccc(Br)c1C(=O)N[C@@H](Cc1ccc(NC(=O)c2c(Cl)cccc2Cl)cc1)C(=O)O`, the solubility (usually how much of the substance goes into solution per volume) was 330 µg/mL (≈ 600 µM).

`COc1cccc(OC)c1-c1ccc(C[C@H](NC(=O)c2c(Cl)cccc2Cl)C(=O)O)cc1`: the solubility was 219 µg/mL (≈ 462 µM).
